According to patent US6706767B2, “Therapeutics for chemokine mediated diseases” (Chemokine Therapeutics Corporation, priority 2000, dated 2004):
Where two headings read alike, the source gives them in different places.

Experiments:
MCP-1 receptor (CCR-2) = MCP-1 receptor (CCR-2) (Homo sapiens, UniProt P41597); assay: Inhibition of I125-labeled MCP-1 binding to the MCP-1 receptor (CCR-2); settings: I125 labeled MCP-1 as competitor; FIG. 1
Description: A dose response of phenanthrene-9,10-dione at different concentration in comparison to MCP-1.
This example discloses the ability of tricyclic compounds of the invention, such as phenanthrene-9,10-dione (compound 1), for inhibiting binding to the MCP-1 receptor (CCR-2). The binding studies were conducted using I^125 labeled MCP-1 as competitor. […] In FIG. 1, the results of competition studies are plotted using a standard scatchard plot analysis.

EAE mouse model = EAE mouse model of Multiple Sclerosis, clinical scores; format: in vivo; settings: 1 mg/kg/day for 14 days, compared to control saline injection
Text: Experimental autoimmune encephalomyelitis (EAE) is a CD4^+ Th1-mediated inflammatory demyelinating disease of the central nervous system (CNS) that serves as a model for multiple sclerosis. It has previously been disclosed that monocyte chemotactic protein-one (MCP-1) regulates acute and relapsing autoimmune encephalomyelitis, and that MCP-1 production in the central nervous system is correlated with relapsing EAE development. In this example, the EAE mouse model for MS is used, in which the disease is induced with Bordetella pertussis toxin (Claude C. A. et. al., (1975) Journal of Immunology 114(5): 1537-1540 and Hosseimi, H. et. al., (2000) Neurology 54 (7): A166, An abstract presented in April 2000 on “Inhibition of proteosome prevents clinical signs in an experimental model of Multiple Sclerosis”). A dose of 1 mg/kg/day in a volume of 100 μl saline was given to animals for 14 days, and individual animals were observed daily and graded accordingly to their clinical severity as follows: grade 0, no abnormality; grade 1, limp tail; grade 2, limp tail and partial hind limb weakness; grade 3, complete hind limb paralysis; grade 4, complete hind limb paralysis and fore limb weakness; grade 5, death.

human neutrophils = assay: Inhibition of IL-8 induced [Ca2+]i mobilization in human neutrophils; format: cell-based; settings: 30 minutes incubation, 10 nM IL-8
Description: Freshly isolated neutrophils loaded with Fura-2,AM were incubated with phenanthrene-9,10-dione for 30 minutes prior to induction of [Ca^2+]i mobilization by 10 nM IL-8. Values represent the increase in mobilization over basal levels (wavelength averaging at approximately 176 nM) and are the mean +/− one S.D. of n=3 experiments.

neutrophils [1] = assay: fMLP induced neutrophil calcium level; format: cell-based; settings: FIG. 6, after 15 seconds stimulation
CXCR2 = molecular target: T1, CXCR2 (Homo sapiens, UniProt P25025); assay: Inhibition of IL-8 binding to CXCR2; settings: FIG. 8
T1 sequence (P25025 1-360): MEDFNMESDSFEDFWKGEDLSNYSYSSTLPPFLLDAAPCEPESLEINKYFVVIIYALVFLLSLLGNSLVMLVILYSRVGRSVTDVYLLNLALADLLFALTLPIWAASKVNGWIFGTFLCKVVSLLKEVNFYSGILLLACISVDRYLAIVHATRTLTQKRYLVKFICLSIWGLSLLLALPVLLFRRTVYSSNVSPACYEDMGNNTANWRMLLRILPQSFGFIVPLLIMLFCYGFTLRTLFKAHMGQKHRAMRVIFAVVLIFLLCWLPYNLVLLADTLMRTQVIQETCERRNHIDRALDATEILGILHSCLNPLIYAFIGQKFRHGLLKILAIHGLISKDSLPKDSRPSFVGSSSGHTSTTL

THP-1 cells and T-cells = assay: Cytoplasmic calcium rise induced by the compound itself; format: cell-based; settings: analogous to native MCP-1
Description: (§1) Fura-2,AM loaded THP-1 cells were incubated with M163 for 30 min prior to induction of [Ca^2+]i mobilization by 20 nM MCP-1. Cells were also evaluated in the presence of fMLP (1 mM)/cytochalasin B (0.5 mM) or M163 (600 ng/ml) as positive and negative controls respectively. […] The values represent the mean +/− one S.D.

THP-1 cells = assay: Inhibition of MCP-1 induced [Ca2+]i mobilization in Fura-2,AM loaded THP-1 cells; format: cell-based; settings: Homo sapiens, 0.5 h, 30 min incubation
Description: as §1

CXCR1 = molecular target: T2, CXCR1 (Homo sapiens, UniProt P25024); assay: Inhibition of IL-8 binding to CXCR1; settings: FIG. 8
T2 sequence (P25024 1-350): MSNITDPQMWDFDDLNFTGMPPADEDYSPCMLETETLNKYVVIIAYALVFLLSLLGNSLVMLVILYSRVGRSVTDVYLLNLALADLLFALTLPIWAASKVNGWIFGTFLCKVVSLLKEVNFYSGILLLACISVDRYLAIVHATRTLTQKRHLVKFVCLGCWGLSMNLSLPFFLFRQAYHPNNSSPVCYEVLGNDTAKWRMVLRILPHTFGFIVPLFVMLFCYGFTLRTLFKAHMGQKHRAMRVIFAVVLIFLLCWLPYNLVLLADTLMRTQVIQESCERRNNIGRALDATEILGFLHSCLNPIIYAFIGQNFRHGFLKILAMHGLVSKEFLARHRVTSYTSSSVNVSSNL

neutrophils [2] = assay: CPPD crystal induced neutrophil activation (chemiluminescence); format: cell-based; settings: 0.3 μg/ml and 1 μg/ml
Text: (§2) In accordance with this aspect of the invention, tricyclic comounds such as phenanthrene-9,10-dione or corresponding salts may be used for the treatment of inflammatory diseases related to gout and arthritis.

neutrophils [3] = assay: fMLP induced neutrophil activation (chemiluminescence); format: cell-based; settings: 0.3 μg/ml and 1 μg/ml
Text: as §2

Sequence of MCP-1 receptor (CCR-2) (P41597 whole entry, species assumed): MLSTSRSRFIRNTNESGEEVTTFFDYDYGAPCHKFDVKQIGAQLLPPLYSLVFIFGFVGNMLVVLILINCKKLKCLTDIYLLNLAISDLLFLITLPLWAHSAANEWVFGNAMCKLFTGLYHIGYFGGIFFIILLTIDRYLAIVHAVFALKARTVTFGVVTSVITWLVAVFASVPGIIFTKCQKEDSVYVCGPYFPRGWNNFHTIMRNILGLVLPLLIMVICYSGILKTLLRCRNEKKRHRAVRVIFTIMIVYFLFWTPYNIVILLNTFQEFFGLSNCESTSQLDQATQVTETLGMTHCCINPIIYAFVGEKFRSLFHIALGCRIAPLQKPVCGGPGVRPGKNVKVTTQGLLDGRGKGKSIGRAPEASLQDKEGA

## O=C1C(=O)c2ccccc2-c2ccccc21 [phenanthrene-9,10-dione]
MCP-1 receptor (CCR-2)
  inhibitory effect on the binding of MCP-1 to CCR-2: inhibitory effect
EAE mouse model
  effect on clinical scores: beneficial effect on the clinical scores
Human neutrophils; 3 μM
  suppression of calcium level (IL-8 induced [Ca2+]i mobilization): about 63%
Human neutrophils; Neutrophil, 0.5 h
  IC50: 3000 nM
Neutrophils [1]
  inhibition of intracellular calcium ion release: effective inhibitor of intracellular calcium ion release
CXCR2
  inhibitory effect on the binding of IL-8 to CXCR2: inhibitory effect
THP-1 cells and T-cells
  effect on cytoplasmic calcium concentration: induced a rapid, transient rise in cytoplasmic calcium concentration
THP-1 cells; 20 nM MCP-1, read-out: IC50, MCP-1 associated induction of [Ca2+]i mobilization
  IC50: 0.25 µg/mL
THP-1 cells; 20 nM MCP-1, value in parentheses, read-out: IC50, MCP-1 associated induction of [Ca2+]i mobilization
  IC50: 120 nM
CXCR1
  inhibitory effect on the binding of IL-8 to CXCR1: inhibitory effect
Neutrophils [2]
  inhibition of CPPD crystal induced neutrophil activation: strong inhibition
Neutrophils [3]
  inhibition of fMLP induced neutrophil activation: strong inhibition
